Experiment: frontal affinity chromatography (FAC), association constant to PA sugar chains without L-fucose
Assay type: binding
Summary of the method: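 Lectin coupled via primary amines to NHS-activated sepharose in a miniature column, run in TBS (pH 7.4) at 0.125 ml/min and 25 degrees C. PA sugar chains (3.75 nM or 7.5 nM) applied in excess, with elution monitored by fluorescence (ex 310/em 380 nm). Ka calculated from front-end delay (V−Vo) versus PA rhamnose and effective ligand amount (Bt).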

Lepista sordida lectin [LSL, novel lectin purified from the mushroom Lepista sordida]
binding to sugar chain not having L-fucose (FAC): not detected at all | association constant Ka (Sugar chain No. 001, sugar chain not having L-fucose): <1000 M⁻¹ | association constant Ka (Sugar chain No. 002, sugar chain not having L-fucose): <1000 M⁻¹ | association constant Ka (Sugar chain No. 003, sugar chain not having L-fucose): <1000 M⁻¹ | association constant Ka (Sugar chain No. 004, sugar chain not having L-fucose): <1000 M⁻¹ | association constant Ka (Sugar chain No. 005, sugar chain not having L-fucose): <1000 M⁻¹ | association constant Ka (Sugar chain No. 006, sugar chain not having L-fucose): <1000 M⁻¹ | association constant Ka (Sugar chain No. 007, sugar chain not having L-fucose): <1000 M⁻¹ | association constant Ka (Sugar chain No. 008, sugar chain not having L-fucose): <1000 M⁻¹ | association constant Ka (Sugar chain No. 009, sugar chain not having L-fucose): <1000 M⁻¹ | association constant Ka (Sugar chain No. 010, sugar chain not having L-fucose): <1000 M⁻¹ | association constant Ka (Sugar chain No. 011, sugar chain not having L-fucose): <1000 M⁻¹ | association constant Ka (Sugar chain No. 012, sugar chain not having L-fucose): <1000 M⁻¹ | association constant Ka (Sugar chain No. 013, sugar chain not having L-fucose): <1000 M⁻¹ | association constant Ka (Sugar chain No. 014, sugar chain not having L-fucose): <1000 M⁻¹ | association constant Ka (Sugar chain No. 101, sugar chain not having L-fucose): <1000 M⁻¹ | association constant Ka (Sugar chain No. 103, sugar chain not having L-fucose): <1000 M⁻¹ | association constant Ka (Sugar chain No. 104, sugar chain not having L-fucose): <1000 M⁻¹ | association constant Ka (Sugar chain No. 105, sugar chain not having L-fucose): <1000 M⁻¹ | association constant Ka (Sugar chain No. 107, sugar chain not having L-fucose): <1000 M⁻¹ | association constant Ka (Sugar chain No. 108, sugar chain not having L-fucose): <1000 M⁻¹ | association constant Ka (Sugar chain No. 301, sugar chain not having L-fucose): <1000 M⁻¹ | association constant Ka (Sugar chain No. 304, sugar chain not having L-fucose): <1000 M⁻¹ | association constant Ka (Sugar chain No. 305, sugar chain not having L-fucose): <1000 M⁻¹ | association constant Ka (Sugar chain No. 307, sugar chain not having L-fucose): <1000 M⁻¹ | association constant Ka (Sugar chain No. 308, sugar chain not having L-fucose): <1000 M⁻¹ | association constant Ka (Sugar chain No. 313, sugar chain not having L-fucose): <1000 M⁻¹ | association constant Ka (Sugar chain No. 314, sugar chain not having L-fucose): <1000 M⁻¹ | association constant Ka (Sugar chain No. 323, sugar chain not having L-fucose): <1000 M⁻¹ | association constant Ka (Sugar chain No. 501, sugar chain not having L-fucose): <1000 M⁻¹ | association constant Ka (Sugar chain No. 502, sugar chain not having L-fucose): <1000 M⁻¹ | association constant Ka (Sugar chain No. 503, sugar chain not having L-fucose): <1000 M⁻¹ | association constant Ka (Sugar chain No. 504, sugar chain not having L-fucose): <1000 M⁻¹ | association constant Ka (Sugar chain No. 701, sugar chain not having L-fucose): <1000 M⁻¹ | association constant Ka (Sugar chain No. 702, sugar chain not having L-fucose): <1000 M⁻¹ | association constant Ka (Sugar chain No. 703, sugar chain not having L-fucose): <1000 M⁻¹ | association constant Ka (Sugar chain No. 704, sugar chain not having L-fucose): <1000 M⁻¹ | association constant Ka (Sugar chain No. 705, sugar chain not having L-fucose): <1000 M⁻¹ | association constant Ka (Sugar chain No. 706, sugar chain not having L-fucose): <1000 M⁻¹ | association constant Ka (Sugar chain No. 707, sugar chain not having L-fucose): <1000 M⁻¹ | association constant Ka (Sugar chain No. 708, sugar chain not having L-fucose): <1000 M⁻¹ | association constant Ka (Sugar chain No. 709, sugar chain not having L-fucose): <1000 M⁻¹ | association constant Ka (Sugar chain No. 710, sugar chain not having L-fucose): <1000 M⁻¹ | association constant Ka (Sugar chain No. 711, sugar chain not having L-fucose): <1000 M⁻¹ | association constant Ka (Sugar chain No. 712, sugar chain not having L-fucose): <1000 M⁻¹ | association constant Ka (Sugar chain No. 713, sugar chain not having L-fucose): <1000 M⁻¹ | association constant Ka (Sugar chain No. 715, sugar chain not having L-fucose): <1000 M⁻¹ | association constant Ka (Sugar chain No. 716, sugar chain not having L-fucose): <1000 M⁻¹ | association constant Ka (Sugar chain No. 717, sugar chain not having L-fucose): <1000 M⁻¹ | association constant Ka (Sugar chain No. 724, sugar chain not having L-fucose): <1000 M⁻¹ | association constant Ka (Sugar chain No. 725, sugar chain not having L-fucose): <1000 M⁻¹ | association constant Ka (Sugar chain No. 728, sugar chain not having L-fucose): <1000 M⁻¹ | association constant Ka (Sugar chain No. 732, sugar chain not having L-fucose): <1000 M⁻¹ | association constant Ka (Sugar chain No. 733, sugar chain not having L-fucose): <1000 M⁻¹ | association constant Ka (Sugar chain No. 734, sugar chain not having L-fucose): <1000 M⁻¹ | association constant Ka (Sugar chain No. 735, sugar chain not having L-fucose): <1000 M⁻¹ | association constant Ka (Sugar chain No. 736, sugar chain not having L-fucose): <1000 M⁻¹ | association constant Ka (Sugar chain No. 737, sugar chain not having L-fucose): <1000 M⁻¹ | association constant Ka (Sugar chain No. 738, sugar chain not having L-fucose): <1000 M⁻¹ | association constant Ka (Sugar chain No. 901, sugar chain not having L-fucose): <1000 M⁻¹ | association constant Ka (Sugar chain No. 902, sugar chain not having L-fucose): <1000 M⁻¹ | association constant Ka (Sugar chain No. 903, sugar chain not having L-fucose): <1000 M⁻¹ | association constant Ka (Sugar chain No. 905, sugar chain not having L-fucose): <1000 M⁻¹ | association constant Ka (Sugar chain No. 907, sugar chain not having L-fucose): <1000 M⁻¹
